Drawing on patent publication US9085555B2, “Complement pathway modulators and uses thereof” (priority 2011, dated 2015), this text covers IC50 for 27 compounds.

pIC50: −log10 of the molar value.

This assay addresses Factor D (Homo sapiens (Human), UniProt P00746). Kind of assay: biochemical. The assay is classed as biochemical. The conditions noted are these: read-out: IC50.

Sequence of Factor D (P00746 26-253): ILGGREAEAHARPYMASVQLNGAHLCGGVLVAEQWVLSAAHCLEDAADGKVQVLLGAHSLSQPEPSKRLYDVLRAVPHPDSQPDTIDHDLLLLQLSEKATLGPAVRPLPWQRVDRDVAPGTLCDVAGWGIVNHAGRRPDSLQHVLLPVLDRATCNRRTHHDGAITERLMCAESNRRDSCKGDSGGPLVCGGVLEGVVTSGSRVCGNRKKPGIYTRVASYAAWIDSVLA

On to `C=CCOc1ccc2c(NC(=O)N3C[C@H](F)C[C@H]3C(=O)NCc3cccc(Cl)c3F)cn(C(N)=O)c2c1` [Example 280, (2S,4R)-4-Fluoro-pyrrolidine-1,2-dicarboxylic acid 1-[(6-allyloxy-1-carbamoyl-1H-indol-3-yl)-amide] 2-(3-chloro-2-fluoro-benzylamide)], for which the pIC50 is 6.60.
With `CC(=O)n1cc(NC(=O)N2[C@@H]3C[C@@H]3C[C@H]2C(=O)N[C@H](CN(C)C)c2cccc(Cl)c2F)c2ccccc21` [Example 281, (1R,3S,5R)-2-Aza-bicyclo[3.1.0]hexane-2,3-dicarboxylic acid 2-[(1-acetyl-1H-indol-3-yl)-amide] 3-{[(S)-1-(3-chloro-2-fluoro-phenyl)-2-dimethylamino-ethyl]-amide}], the pIC50 was 7.74.
Next, `CNC(=O)n1cc(NC(=O)N2CCC[C@H]2C(=O)Nc2cccc(OC(F)(F)F)c2)c2ccccc21` [Example 282, (S)-Pyrrolidine-1,2-dicarboxylic acid 1-[(1-methylcarbamoyl-1H-indol-3-yl)-amide] 2-[(3-trifluoromethoxy-phenyl)-amide]]: 5.43.
Next, `NC(=O)n1cc(NC(=O)N2CC[C@@H](O)[C@H]2C(=O)NCc2cnc(Cl)s2)c2ccccc21` [Example 283, (2S,3R)-3-Hydroxy-pyrrolidine-1,2-dicarboxylic acid 1-[(1-carbamoyl-1H-indol-3-yl)-amide] 2-[(2-chloro-thiazol-5-ylmethyl)-amide]]: 6.05.
To `CNC(=O)n1cc(NC(=O)N2[C@H](C(=O)NCc3cccc(Cl)c3F)C[C@@]3(COC)C[C@@H]23)c2ccccc21` [Example 284, (1R,3S,5S)-5-Methoxymethyl-2-aza-bicyclo[3.1.0]hexane-2,3-dicarboxylic acid 3-(3-chloro-2-fluoro-benzylamide) 2-[(1-methylcarbamoyl-1H-indol-3-yl)-amide]] belongs 6.54.
For the compound `CC(C)c1cccc(NC(=O)[C@@H]2C[C@H]3C[C@H]3N2C(=O)Nc2cn(C(N)=O)c3ccccc23)c1` [Example 285, (1R,3S,5R)-2-Aza-bicyclo[3.1.0]hexane-2,3-dicarboxylic acid 2-[(1-carbamoyl-1H-indol-3-yl)-amide] 3-[(3-isopropyl-phenyl)-amide]], the pIC50 is 7.26.
For `NC(=O)n1cc(NC(=O)N2CCC[C@H]2C(=O)Nc2cccc(OC(F)(F)F)c2)c2ccc(Br)cc21` [Example 286, (S)-Pyrrolidine-1,2-dicarboxylic acid 1-[(6-bromo-1-carbamoyl-1H-indol-3-yl)-amide] 2-[(3-trifluoromethoxy-phenyl)-amide]], the pIC50 is 5.58.
For the compound `CNC(=O)n1cc(NC(=O)N2[C@@H]3C[C@@H]3C[C@H]2C(=O)N[C@H](CO)c2cccc(Cl)c2F)c2ccccc21` [Example 287, (1R,3S,5R)-2-Azabicyclo[3.1.0]hexane-2,3-dicarboxylic acid 3-{[(S)-1-(3-chloro-2-fluoro-phenyl)-2-hydroxy-ethyl]-amide}2-[(1-methylcarbamoyl-1H-indol-3-yl)-amide]], the negative-log IC50 (pIC50) is 6.95.
To `CCc1ccc2c(NC(=O)N3CCC[C@H]3C(=O)Nc3cccc(OC(F)(F)F)c3)cn(C(N)=O)c2c1` [Example 288, (S)-Pyrrolidine-1,2-dicarboxylic acid 1-[(1-carbamoyl-6-ethyl-1H-indol-3-yl)-amide] 2-[(3-trifluoromethoxy-phenyl)-amide]] belongs 5.96; to `CNC(=O)n1cc(NC(=O)N2[C@@H]3C[C@@H]3C[C@H]2C(=O)N[C@H](CN(C)C)c2cccc(Cl)c2F)c2ccccc21` [Example 289, (1R,3S,5R)-2-Aza-bicyclo[3.1.0]hexane-2,3-dicarboxylic acid 3-{[(S)-1-(3-chloro-2-fluoro-phenyl)-2-dimethylamino-ethyl]-amide} 2-[(1-methylcarbamoyl-1H-indol-3-yl)-amide]], 6.26.
Next, `NC(=O)n1cc(NC(=O)N2CCC[C@H]2C(=O)Nc2cccc(OC(F)(F)F)c2)c2ccc(Cl)cc21` [Example 291, (S)-Pyrrolidine-1,2-dicarboxylic acid 1-[(1-carbamoyl-6-chloro-1H-indol-3-yl)-amide] 2-[(3-trifluoromethoxy-phenyl)-amide]]: 5.49.
For `COc1ccc2c(c1)c(NC(=O)N1C[C@H](F)C[C@H]1C(=O)NCc1cccc(Cl)c1F)cn2C(N)=O` [Example 292, (2S,4R)-4-Fluoro-pyrrolidine-1,2-dicarboxylic acid 1-[(1-carbamoyl-5-methoxy-1H-indol-3-yl)-amide] 2-(3-chloro-2-fluoro-benzylamide)], the pIC50 was 8.52.
In the case of `NC(=O)n1cc(NC(=O)N2CCS[C@H]2C(=O)NCc2ccc(Cl)s2)c2ccccc21` [Example 293, (S)-Thiazolidine-2,3-dicarboxylic acid 3-[(1-carbamoyl-1H-indol-3-yl)-amide] 2-[(5-chloro-thiophen-2-ylmethyl)-amide]], the negative-log IC50 (pIC50) was 7.46.
Next, `NC(=O)n1cc(NC(=O)N2C3CC3C[C@H]2C(=O)NCc2cccc(Cl)c2F)c2cc(F)ccc21` (stereo partly drawn) [Example 294, (1R,3S,5R)-2-Aza-bicyclo[3.1.0]hexane-2,3-dicarboxylic acid 2-[(1-carbamoyl-5-fluoro-1H-indol-3-yl)-amide] 3-(3-chloro-2-fluoro-benzylamide)]: 8.30; `NC(=O)n1cc(NC(=O)N2C3CC3C[C@H]2C(=O)NCc2cnc(Cl)s2)c2ccccc21` (stereo partly drawn) [Example 295, (1R,3S,5R)-2-Aza-bicyclo[3.1.0]hexane-2,3-dicarboxylic acid 2-[(1-carbamoyl-1H-indol-3-yl)-amide] 3-[(2-chloro-thiazol-5-ylmethyl)-amide]]: 6.82.
To `NC(=O)n1cc(NC(=O)N2C[C@H](F)C[C@H]2C(=O)N[C@@H](c2cccc(Cl)c2)C(F)(F)F)c2ccccc21` [Example 296, (2S,4R)-4-Fluoro-pyrrolidine-1,2-dicarboxylic acid 1-[(1-carbamoyl-1H-indol-3-yl)-amide] 2-{[(S)-1-(3-chloro-phenyl)-2,2,2-trifluoro-ethyl]-amide}] belongs 6.66; to `NC(=O)n1cc(NC(=O)N2C3CC3C[C@H]2C(=O)Nc2cccc(OC(F)(F)F)c2)c2ccc(F)cc21` (stereo partly drawn) [Example 297, (1R,3S,5R)-2-Aza-bicyclo[3.1.0]hexane-2,3-dicarboxylic acid 2-[(1-carbamoyl-6-fluoro-1H-indol-3-yl)-amide] 3-[(3-trifluoromethoxy-phenyl)-amide]], 6.46.
To `COc1ccc2c(c1)c(NC(=O)N1C[C@H](F)C[C@H]1C(=O)Nc1cccc(OC(F)(F)F)c1F)cn2C(N)=O` [Example 298, (2S,4R)-4-Fluoro-pyrrolidine-1,2-dicarboxylic acid 1-[(1-carbamoyl-5-methoxy-1H-indol-3-yl)-amide] 2-[(2-fluoro-3-trifluoromethoxy-phenyl)-amide]] belongs 8.15; to `NC(=O)n1cc(NC(=O)N2CC[C@H]2C(=O)Nc2cccc(OC(F)(F)F)c2)c2ccccc21` [Example 299, (S)-Azetidine-1,2-dicarboxylic acid 1-[(1-carbamoyl-1H-indol-3-yl)-amide] 2-[(3-trifluoromethoxy-phenyl)-amide]], 5.74; to `COc1ccc2c(c1)c(NC(=O)N1C3CC3C[C@H]1C(=O)NCc1cccc(Cl)c1F)cn2C(N)=O` (stereo partly drawn) [Example 300, (1R,3S,5R)-2-Aza-bicyclo[3.1.0]hexane-2,3-dicarboxylic acid 2-[(1-carbamoyl-5-methoxy-1H-indol-3-yl)-amide] 3-(3-chloro-2-fluoro-benzylamide)], 8.40.
Regarding `NC(=O)n1cc(NC(=O)N2CC(F)(F)C[C@H]2C(=O)NCc2cccc(Cl)c2F)c2ccccc21` [Example 301, (S)-4,4-Difluoro-pyrrolidine-1,2-dicarboxylic acid 1-[(1-carbamoyl-1H-indol-3-yl)-amide] 2-(3-chloro-2-fluoro-benzylamide)], the pIC50 was 7.02.
Next, `CC1(C)CC[C@@H](C(=O)NCc2cccc(Cl)c2F)N1C(=O)Nc1cn(C(N)=O)c2ccccc12` [Example 302, (S)-5,5-Dimethyl-pyrrolidine-1,2-dicarboxylic acid 1-[(1-carbamoyl-1H-indol-3-yl)-amide] 2-(3-chloro-2-fluoro-benzylamide)]: 7.12; `COCCOc1ccc2c(c1)c(NC(=O)N1C[C@H](F)C[C@H]1C(=O)NCc1cccc(Cl)c1F)cn2C(N)=O` [Example 303, (2S,4R)-4-Fluoro-pyrrolidine-1,2-dicarboxylic acid 1-{[1-carbamoyl-5-(2-methoxy-ethoxy)-1H-indol-3-yl]-amide} 2-(3-chloro-2-fluoro-benzylamide)]: 8.10; `Cc1ccnc(CNC(=O)[C@@H]2C[C@@H](F)CN2C(=O)Nc2cn(C(N)=O)c3ccccc23)c1F` [Example 304, (2S,4R)-4-Fluoro-pyrrolidine-1,2-dicarboxylic acid 1-[(1-carbamoyl-1H-indol-3-yl)-amide] 2-[(3-fluoro-4-methyl-pyridin-2-ylmethyl)-amide]]: 6.19.
To `NC(=O)n1cc(NC(=O)N2C[C@H](F)C[C@H]2C(=O)NCc2cncc(C(F)(F)F)c2)c2ccccc21` [Example 305, (2S,4R)-4-Fluoro-pyrrolidine-1,2-dicarboxylic acid 1-[(1-carbamoyl-1H-indol-3-yl)-amide] 2-[(5-trifluoromethyl-pyridin-3-ylmethyl)-amide]] belongs 5.87; to `CCOC(=O)Cc1ccc2c(c1)c(NC(=O)N1[C@@H]3C[C@@H]3C[C@H]1C(=O)NCc1cccc(Cl)c1F)cn2C(N)=O` [Example 306, (1-carbamoyl-3-{[(1R,3S,5R)-3-(3-chloro-2-fluoro-benzylcarbamoyl)-2-aza-bicyclo[3.1.0]hexane-2-carbonyl]-amino}-1H-indol-5-yl)-acetic acid ethyl ester], 8.40; to `NC(=O)n1cc(NC(=O)N2CCC3C[C@@]32C(=O)Nc2cccc(OC(F)(F)F)c2)c2ccccc21` (stereo partly drawn) [Example 307, (1S,5R)-2-Aza-bicyclo[3.1.0]hexane-1,2-dicarboxylic acid 2-[(1-carbamoyl-1H-indol-3-yl)-amide] 1-[(3-trifluoromethoxy-phenyl)-amide]], 4.88.

Broadly, the pIC50 is the negative decadic logarithm of the IC50, by convention in mol/L.
